The source of these data is patent US10647713B2 (Nimbus Lakshmi, Inc., priority 2016, dated 2020).

human TYK2 (JH2domain-pseudokinase), sequence (P29597 556-888): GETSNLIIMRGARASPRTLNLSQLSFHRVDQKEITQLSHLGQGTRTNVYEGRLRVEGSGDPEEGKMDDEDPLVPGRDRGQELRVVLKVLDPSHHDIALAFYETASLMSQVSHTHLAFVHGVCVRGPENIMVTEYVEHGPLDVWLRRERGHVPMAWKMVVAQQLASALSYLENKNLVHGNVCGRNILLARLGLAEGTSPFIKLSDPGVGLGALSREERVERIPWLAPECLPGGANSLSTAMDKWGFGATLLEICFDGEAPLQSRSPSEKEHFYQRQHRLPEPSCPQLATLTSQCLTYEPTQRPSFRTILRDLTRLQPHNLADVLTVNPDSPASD

In this test the target is human TYK2 (JH2domain-pseudokinase) (Homo sapiens (Human), UniProt P29597). Nature of the test: TYK2 JH2 Domain Binding Assay (KINOMEscan, DiscoveRx). The note with it: 11-point dilution, duplicate. The procedure, abridged:
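Kd from duplicate 11-point 3-fold dilutions starting at 30,000 nM, fitted by Hill equation with slope fixed at −1. Compounds (final 0.9% DMSO) displace DNA-tagged HEK293-expressed TYK2 JH2 fusion (<0.1 nM) from ligand-coated beads over 1 h at room temperature; eluted kinase read by qPCR.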
Consider `C#Cc1cccc(Nc2cc(Nc3ccc(F)cc3S(C)(=O)=O)c3nc(C)[nH]c3n2)n1` [I-630, N5-(6-ethynylpyridin-2-yl)-N7-(4-fluoro-2-(methylsulfonyl)phenyl)-2-methyl-3H-imidazo[4,5-b]pyridine-5,7-diamine], for which the Kd is less than 0.1 nM.

Consider `CN=S(C)(=O)c1cc(-c2cnn(C)c2C)ccc1Nc1cc(NC(=O)C2CC2)nc2[nH]c(C(F)F)nc12` (stereo not drawn) [I-631, N-(2-(difluoromethyl)-7-((4-(1,5-dimethyl-1H-pyrazol-4-yl)-2-(N,S-dimethylsulfonimidoyl)phenyl)amino)-3H-imidazo[4,5-b]pyridin-5-yl)cyclopropanecarboxamide], for which the Kd was less than 0.1 nM.

Regarding `CN=S(C)(=O)c1cc(-c2ccn(C)n2)ccc1Nc1cc(NC(=O)C2CC2)nc2[nH]c(C(F)F)nc12` (stereo not drawn) [I-632], the Kd fell in the range of 0.1 to 0.5 nM.

For the compound `CS(=O)(=O)c1cc(F)ccc1Nc1cc(Nc2cc3c(nn2)CCC3)nc2[nH]c(C(F)F)nc12` [I-633], the Kd is 0.1 to 0.5 nM.

Turning to `CN=S(C)(=O)c1cc(-c2nc(COC)c(C)s2)ccc1Nc1cc(NC(=O)C2CC2)nc2[nH]c(C(F)F)nc12` (stereo not drawn) [I-634], the Kd lay in the range of 0.1 to 0.5 nM.

The compound `COCc1ccc(Nc2cc(Nc3ccc(F)cc3S(C)(=O)=O)c3nc(C(F)F)[nH]c3n2)nn1` [I-635] showed a Kd of 0.1 to 0.5 nM.

For `COCc1ccc(Nc2cc(Nc3ccc(F)cc3S(C)(=O)=O)c3nc(C)[nH]c3n2)nn1` [I-636], the Kd lay within 0.1 to 0.5 nM.

`CN=[S@@](C)(=O)c1cc(-c2cnn(C)c2C)ccc1Nc1cc(NC(=O)C2CC2)nc2[nH]c(C(F)F)nc12` [I-637] displayed a Kd of less than 0.1 nM.

As to `CN=[S@](C)(=O)c1cc(-c2cnn(C)c2C)ccc1Nc1cc(NC(=O)C2CC2)nc2[nH]c(C(F)F)nc12` [I-638], the Kd lay within 0.1 to 0.5 nM.

`Cc1nc2c(Nc3ccc(F)cc3S(C)(=O)=O)cc(Nc3cc4c(nn3)CCC4)nc2[nH]1` [I-639] displayed a Kd of less than 0.1 nM.

Compound `CN=S(C)(=O)c1cc(-c2ccn(C)n2)ccc1Nc1cc(NC(=O)C2CC2)nc2[nH]c(C)nc12` (stereo not drawn) [I-640] had a Kd of 0.1 to 0.5 nM.

Turning to `CN=S(C)(=O)c1cc(-c2nn(C)cc2C)ccc1Nc1cc(NC(=O)C2CC2)nc2[nH]c(C(F)F)nc12` (stereo not drawn) [I-641], the Kd was less than 0.1 nM.

In the case of `Cc1cc(Nc2cc(Nc3ccc(C4CCC(C)(C)CO4)cc3S(C)(=O)=O)c3nc(C)[nH]c3n2)nc(C)n1` (stereo not drawn) [I-642], the Kd was less than 0.1 nM.

As for `CS(=O)(=O)c1cc(F)ccc1Nc1cc(Nc2ccc3c(n2)CCOC3)nc2[nH]c(C(F)F)nc12` [I-643], the Kd lay in the range of 0.1 to 0.5 nM.

`Cc1nc2c(Nc3ccc(F)cc3S(C)(=O)=O)cc(Nc3ccc4c(n3)CCOC4)nc2[nH]1` [I-644] yielded a Kd of 0.1 to 0.5 nM.

With `COc1c(Nc2cc(Nc3ccc4c(n3)CCOC4)nc3[nH]c(C(F)F)nc23)cccc1-c1ncnn1C` [I-645], the Kd was in the range of 1 to 10 nM.

Turning to `COc1c(Nc2cc(Nc3ccc4c(n3)CCOC4)nc3[nH]c(C(F)F)nc23)cccc1-c1cnn(C)n1` [I-646], the Kd fell in the range of 0.5 to 1 nM.

In the case of `COc1c(Nc2cc(Nc3cc4c(nn3)CCC4)nc3[nH]c(C(F)F)nc23)cccc1-c1ncnn1C` [I-647], the Kd was in the range of 0.5 to 1 nM.

`COc1c(Nc2cc(Nc3cc4c(nn3)CCC4)nc3[nH]c(C(F)F)nc23)cccc1-c1cnn(C)n1` [I-648] returned a Kd of 0.1 to 0.5 nM.

`CN=[S@@](C)(=O)c1cc(-c2nc(COC)c(C)s2)ccc1Nc1cc(NC(=O)C2CC2)nc2[nH]c(C(F)F)nc12` [I-649] showed a Kd of 1 to 10 nM.

Compound `CN=[S@](C)(=O)c1cc(-c2nc(COC)c(C)s2)ccc1Nc1cc(NC(=O)C2CC2)nc2[nH]c(C(F)F)nc12` [I-650] yielded a Kd of 0.1 to 0.5 nM.

A word on the Kd: it is the constant that tells how readily two partners part at equilibrium. Low values mean higher affinity, high ones lower affinity.
